Measured values reported in ChEMBL document CHEMBL4828706, “Mechanistic Insights into the Leishmanicidal and Bactericidal Activities of Batroxicidin, a Cathelicidin-Related Peptide from a South American Viper (Bothrops atrox)” (J Nat Prod, 2021).
Converted amounts (≈) assume the structure as drawn. The source made the active and inactive calls. The calls are words filed in the database; no cut-off is given here. Where a SMILES comes first, the peptide text is derived from it.

How the values were obtained:
Staphylococcus aureus [1] = assay: Antibacterial activity against Staphylococcus aureus ATCC 29213 assessed as inhibition of bacterial growth by CLSI protocol based microdilution assay; format: functional
Enterococcus faecalis = assay: Antibacterial activity against Enterococcus faecalis ATCC 29212 assessed as inhibition of bacterial growth by CLSI protocol based microdilution assay; format: functional
Escherichia coli [2] = assay: Antibacterial activity against Escherichia coli ATCC 25922 assessed as inhibition of bacterial growth by CLSI protocol based microdilution assay; format: functional
Pseudomonas aeruginosa [3] = assay: Antibacterial activity against Pseudomonas aeruginosa ATCC 27853 assessed as inhibition of bacterial growth by CLSI protocol based microdilution assay; format: functional
Staphylococcus aureus [4] = assay: Antibacterial activity against methicillin-resistant Staphylococcus aureus assessed as inhibition of bacterial growth by CLSI protocol based microdilution assay; format: functional
Pseudomonas aeruginosa [5] = assay: Antibacterial activity against multidrug-resistant Pseudomonas aeruginosa assessed as inhibition of bacterial growth by CLSI protocol based microdilution assay; format: functional
Escherichia coli [6] = assay: Antibacterial activity against multidrug- resistant Escherichia coli assessed as inhibition of bacterial growth by CLSI protocol based microdilution assay; format: functional
Escherichia coli [7] = assay: Antibacterial activity against Escherichia coli ATCC 2101123 assessed as inhibition of bacterial growth incubated for 18 hrs by CLSI protocol based microdilution assay; format: functional
Escherichia coli [8] = assay: Antibacterial activity against Escherichia coli ATCC 1812446 assessed as inhibition of bacterial growth incubated for 18 hrs by CLSI protocol based microdilution assay; format: functional
Cell membrane [9] = assay: Induction of cell membrane permeabilization in Escherichia coli ATCC 25922 assessed as cell morphology distortion by measuring circular depressions along the bacterial surface at 0.47 uM by Atomic force microscopy analysis; format: subcellular
Cell membrane [10] = assay: Induction of cell membrane permeabilization in Escherichia coli ATCC 25922 assessed as cell morphology distortion by measuring alterations in cell shape at 0.47 uM by Atomic force microscopy analysis; format: subcellular
Leishmania amazonensis [11] = assay: Antileishmanial activity against Leishmania amazonensis (MHOM/BR/73/M2269) promastigotes assessed as inhibition of parasite growth measured after 24 hrs by MTT assay; format: functional, organism-based; conditions: MHOM/BR/73/M2269, 24 h
Leishmania amazonensis [12] = assay: Antileishmanial activity in Leishmania amazonensis amastigotes infected in Balb/c mouse peritoneal macrophages assessed as reduction in infection index measured after 24 hrs by Giemsa staining based assay; format: functional, organism-based; conditions: Peritoneal macrophage
Leishmania amazonensis [13] = assay: Antileishmanial activity in Leishmania amazonensis amastigotes infected in Balb/c mouse peritoneal macrophages assessed as average parasitic charge per macrophage at 0.70 uM measured after 24 hrs by Giemsa staining based assay; format: functional; conditions: dose 0.7 µM
Lipid bilayer [14] = assay: Induction of membrane destabilization in mammalian cell membrane mimic POPC:Chol (70:30) large unilamellar vesicle assessed as carboxyfluorescein leakage at MIC for Escherichia coli measured for 60 mins by fluorescence spectroscopy analysis
Lipid bilayer [15] = assay: Induction of membrane destabilization in bacterial cell membrane mimic POPC:POPG (80:20) large unilamellar vesicle assessed as carboxyfluorescein leakage at MIC for Escherichia coli measured for 60 mins by fluorescence spectroscopy analysis
[16] = Cytotoxicity against mouse macrophage J774 cells assessed as cell growth inhibition measured after 24 hrs by Prestoblue dye based fluorescence analysis
[17] = Cytotoxicity against human HaCat cells assessed as cell growth inhibition measured after 48 hrs by MTT assay; format: cell-based
Lipid bilayer [18] = assay: Binding affinity with Biomimetic membrane dodecylphosphocholine micelles by circular dichroism analysis
Lipid bilayer [19] = assay: Binding affinity with Biomimetic membrane dodecylphosphocholine micelles by NMR analysis
Escherichia coli [20] = assay: Antibacterial activity against Escherichia coli ATCC 25922 assessed as inhibition of bacterial growth incubated for 18 hrs by CLSI protocol based microdilution assay; format: functional
Pseudomonas aeruginosa [21] = assay: Antibacterial activity against Pseudomonas aeruginosa ATCC 27853 assessed as inhibition of bacterial growth incubated for 18 hrs by CLSI protocol based microdilution assay; format: functional
Leishmania amazonensis [22] = assay: Antileishmanial activity in Leishmania amazonensis amastigotes infected in Balb/c mouse peritoneal macrophages assessed as average parasitic charge per macrophage at 1 uM measured after 24 hrs by Giemsa staining based assay; format: functional
Cell membrane [23] = assay: Induction of cell membrane permeabilization in Escherichia coli ATCC 25922 assessed as cell morphology distortion by measuring modifications on bacillary structure at 0.23 uM by Atomic force microscopy analysis; format: subcellular
Cell membrane [24] = assay: Disruption of membrane integrity in Leishmania amazonensis promastigotes at EC50 to 2 x EC50 measured after 24 hrs by SYTOX green staining based fluorescence assay; format: subcellular
Cell membrane [25] = assay: Disruption of membrane integrity in Leishmania amazonensis promastigotes assessed as cell morphology deformation at 59.81 uM by Atomic force microscopy analysis; format: subcellular
Cell membrane [26] = assay: Disruption of membrane integrity in Leishmania amazonensis promastigotes assessed as cell morphology deformation by measuring wrinkled patterns at 59.81 uM by Atomic force microscopy analysis; format: subcellular
Cell membrane [27] = assay: Induction of cell membrane permeabilization in Escherichia coli ATCC 25922 assessed as cell morphology distortion by measuring modifications on bacillary structure at 0.12 uM by Atomic force microscopy analysis; format: subcellular
Cell membrane [28] = assay: Disruption of membrane integrity in Leishmania amazonensis promastigotes assessed as cell morphology deformation at 61.98 uM by Atomic force microscopy analysis; format: subcellular
Cell membrane [29] = assay: Disruption of membrane integrity in Leishmania amazonensis promastigotes assessed as cell morphology deformation by measuring wrinkled patterns at 61.98 uM by Atomic force microscopy analysis; format: subcellular

Row | SMILES | MIC (Staphylococcus aureus [1]) [µM] | MIC (Enterococcus faecalis) [µM] | MIC (Escherichia coli [2]) [µM] | MIC (Pseudomonas aeruginosa [3]) [µM] | MIC (Staphylococcus aureus [4]) [µM] | MIC (Pseudomonas aeruginosa [5]) [µM] | MIC (Escherichia coli [6]) [µM] | MIC (Escherichia coli [7]) [µM] | MIC (Escherichia coli [8]) [µM] | EC50 (Leishmania amazonensis [11]) [µM] | Activity (Leishmania amazonensis [12]) | Activity (Lipid bilayer [14]) [%] | Activity (Lipid bilayer [15]) [%] | CC50 at 24 h [16] [nM] | CC50 at 48 h [17] [µM] | Activity (Lipid bilayer [18]) | Activity (Lipid bilayer [19]) | also measured
1 | CC[C@H](C)[C@H](NC(=O)[C@@H](NC(=O)[C@H](CCCNC(=N)N)NC(=O)[C@@H]1CCCN1C(=O)[C@H](CCCCN)NC(=O)[C@H](CCCNC(=N)N)NC(=O)[C@H](Cc1ccccc1)NC(=O)[C@H](Cc1ccccc1)NC(=O)[C@H](CCCCN)NC(=O)[C@H](CCCCN)NC(=O)[C@@H](NC(=O)[C@H](CCCNC(=N)N)NC(=O)[C@H](CCCCN)NC(=O)[C@H](CCCCN)NC(=O)[C@@H](NC(=O)[C@H](CO)NC(=O)[C@H](CC(N)=O)NC(=O)[C@H](CCCCN)NC(=O)[C@H](CC(C)C)NC(=O)[C@H](CCCCN)NC(=O)[C@H](CCCCN)NC(=O)[C@H](Cc1ccccc1)NC(=O)[C@H](Cc1ccccc1)NC(=O)[C@H](CCCCN)NC(=O)[C@H](CCCCN)NC(=O)[C@H](Cc1ccccc1)NC(=O)[C@H](CCCNC(=N)N)NC(=O)[C@@H](N)CCCCN)C(C)C)C(C)C)C(C)C)C(=O)NCC(=O)N[C@H](C(=O)N[C@H](C(=O)N[C@@H](Cc1ccccc1)C(=O)N1CCC[C@H]1C(=O)N[C@@H](Cc1ccccc1)C(N)=O)[C@@H](C)O)C(C)C (H-KRFKKFFKKLKNSVKKRVKKFFRKPRVIGVTFPF-NH2) | 7.51 (≈ 32 µg/mL) | 7.51 (≈ 32 µg/mL) | 0.48 (≈ 2.04 µg/mL) | 0.94 (≈ 4 µg/mL) | 7.51 (≈ 32 µg/mL) | 0.94 (≈ 4 µg/mL) | 0.94 (≈ 4 µg/mL) | 8 (≈ 34.1 µg/mL) | 8 (≈ 34.1 µg/mL) | 4.9 | Dose-Dependent Effect | 35 | 50 | 1600 | 21.7 | Active | Active | Activity (Cell membrane [9]): Active; Activity (Cell membrane [10]): inactive; Activity (Leishmania amazonensis [13]): 1.96
2 | C[C@H]1C(=O)O[C@@H]2CCN3CC=C(COC(=O)[C@](C)(O)[C@]1(C)O)[C@H]23 [MONOCROTALINE] |  |  |  |  |  |  |  | 4 (≈ 1.3 µg/mL) | 16 (≈ 5.21 µg/mL) |  |  |  |  |  |  |  |  | MIC (Escherichia coli [20]): 0.78 µM (≈ 0.254 µg/mL); MIC (Pseudomonas aeruginosa [21]): 1.56 µM (≈ 0.508 µg/mL)
3 | C[C@@H]1[C@H](O)[C@@H](C)/C=C/C=C/C=C/C=C/C=C/C=C/C=C/[C@H](O[C@@H]2O[C@H](C)[C@@H](O)[C@H](N)[C@@H]2O)C[C@@H]2O[C@](O)(C[C@@H](O)C[C@@H](O)[C@H](O)CC[C@@H](O)C[C@@H](O)CC(=O)O[C@H]1C)C[C@H](O)[C@H]2C(=O)O [AMPHOTERICIN B] |  |  |  |  |  |  |  |  |  | 0.024 |  |  |  |  |  |  |  | Ratio (Leishmania amazonensis [22]): 5.07
4 | CC[C@H](C)[C@H](NC(=O)[C@@H](NC(=O)[C@H](CCCNC(=N)N)NC(=O)[C@@H]1CCCN1C(=O)[C@H](CCCCN)NC(=O)[C@H](CCCNC(=N)N)NC(=O)[C@H](Cc1ccccc1)NC(=O)[C@H](Cc1ccccc1)NC(=O)[C@H](Cc1ccccc1)NC(=O)[C@H](CCCCN)NC(=O)[C@@H](NC(=O)[C@H](CCCNC(=N)N)NC(=O)[C@H](CCCCN)NC(=O)[C@H](CCCCN)NC(=O)[C@@H](NC(=O)[C@H](CO)NC(=O)[C@H](CC(N)=O)NC(=O)[C@H](CCCCN)NC(=O)[C@H](CC(C)C)NC(=O)[C@H](CCCCN)NC(=O)[C@H](CCCCN)NC(=O)[C@H](Cc1ccccc1)NC(=O)[C@H](Cc1ccccc1)NC(=O)[C@H](CCCCN)NC(=O)[C@H](CCCCN)NC(=O)[C@H](Cc1ccccc1)NC(=O)[C@H](CCCNC(=N)N)NC(=O)[C@@H](N)CCCCN)C(C)C)C(C)C)C(C)C)C(=O)NCC(=O)N[C@H](C(=O)N[C@H](C(=O)N[C@@H](Cc1ccccc1)C(=O)N1CCC[C@H]1C(=O)N[C@@H](Cc1ccccc1)C(N)=O)[C@@H](C)O)C(C)C (H-KRFKKFFKKLKNSVKKRVKFFFRKPRVIGVTFPF-NH2) | 3.74 (≈ 16 µg/mL) | 7.48 (≈ 32 µg/mL) | 0.93 (≈ 3.98 µg/mL) | 1.87 (≈ 8 µg/mL) | 1.87 (≈ 8 µg/mL) | 4 (≈ 17.1 µg/mL) | 0.94 (≈ 4.02 µg/mL) |  |  | 6.74 | Dose-Dependent Effect | 60 | 60 | 2140 | 29.4 | Active | Active | Activity (Cell membrane [23]): Active; Activity (Cell membrane [24]): Active; Activity (Cell membrane [25]): Active; Activity (Cell membrane [26]): Active
5 | CC[C@H](C)[C@H](NC(=O)[C@@H](NC(=O)[C@H](CCCNC(=N)N)NC(=O)[C@@H]1CCCN1C(=O)[C@H](CCCCN)NC(=O)[C@H](CCCNC(=N)N)NC(=O)[C@H](Cc1ccccc1)NC(=O)[C@H](Cc1ccccc1)NC(=O)[C@H](Cc1ccccc1)NC(=O)[C@H](CCCCN)NC(=O)[C@@H](NC(=O)[C@H](CCCNC(=N)N)NC(=O)[C@H](CCCCN)NC(=O)[C@H](CCCCN)NC(=O)[C@@H](NC(=O)[C@H](CO)NC(=O)[C@H](CC(N)=O)NC(=O)[C@H](CCCCN)NC(=O)[C@H](CC(C)C)NC(=O)[C@H](CCCCN)NC(=O)[C@H](CCCCN)NC(=O)[C@H](Cc1ccccc1)NC(=O)[C@H](Cc1ccccc1)NC(=O)[C@H](CCCCN)NC(=O)[C@H](CCCCN)NC(=O)[C@H](Cc1ccccc1)NC(=O)[C@H](CCCNC(=N)N)NC(=O)[C@@H](N)CCCCN)C(C)C)C(C)C)C(C)C)C(=O)NCC(=O)N[C@H](C(=O)N[C@H](C(=O)N[C@@H](Cc1ccccc1)C(=O)N1CCC[C@H]1C(N)=O)[C@@H](C)O)C(C)C (H-KRFKKFFKKLKNSVKKRVKFFFRKPRVIGVTFP-NH2) | 3.87 (≈ 16 µg/mL) | 7.75 (≈ 32 µg/mL) | 0.48 (≈ 1.98 µg/mL) | 0.97 (≈ 4.01 µg/mL) | 1.94 (≈ 8.01 µg/mL) | 0.94 (≈ 3.88 µg/mL) | 0.48 (≈ 1.98 µg/mL) |  |  | 8.86 | Dose-Dependent Effect | 30 | 35 | 3510 | 34.1 | Active | Active | Activity (Cell membrane [27]): Active; Activity (Cell membrane [28]): Active; Activity (Cell membrane [29]): Active
